Reference: publication PMC9838390, “Discovery and biosynthesis of karnamicins as angiotensin converting enzyme inhibitors” (Nature Communications, 2023)

Tested on: KnmB2
Assay: Hydrogen peroxide formation assay of KnmB2 and variants
Assay type: biochemical, L. rhizosphaerae NEAU-A2
Procedure: Hydrogen peroxide formation assay and NADPH oxidation
The hydrogen peroxide formed from KnmB1, KnmB2 and their variants were measured using the Hydrogen Peroxide Assay Kit (Beyotime Industrial Co. Ltd, Shanghai, China)4-5. 5–100 µL of enzyme reaction mixture was added to 100 µL of working reagent (S0038-1). The mixture was incubated for 30 min at 25 °C, at which time the absorbance at 560 nm was measured by NanoDrop 2000c (Fisher Scientific). […]
Spectral data for new compounds […]
Supplementary Figure 131. H2O2 generation and NADPH oxidation for KnmB2, KnmB1 and their variants. (a) Hydrogen peroxide formation of KnmB2 and variants. […]
(1 picture or pasted object on this page, not shown here) […]
H2O2 generation for KnmB2 and variants in the presence 24 or 32. Reaction conditions (h-j) for KnmB2 and their variants: 50 mM Tris-HCl buffer (pH 7.5), 0.15 mM NADPH, 2 μM KnmB2 or variants, or 0.1 mM substrate 24/32. Values are the means ± SD of n = 3 independent experiments, except for KnmB2+24 (T = 40 min), KnmB2-N219D+24 (T = 4 min), KnmB2-Y215F+24 (T= 1 min and 3 min) in i and j, and KnmB2+32 (T= 8 min) in j (n = 2). Source data are provided as a Source Data file. […]

## CC(C)CCCCc1nc(-c2cc(O)cc(C(N)=O)n2)cs1 [Compound 24]
Fig. S131a, 1 mM NADPH, 16 μM KnmB2, 0.1 mM compound, 30 °C, 3 h, average of 3
  hydrogen peroxide formation of KnmB2 (absorbance UV λ=560 nm), average value: 0.5988
KnmB2+24, Time 0
  H2O2 generation, average value: 0.0000 µM
KnmB2+24, Time 1
  H2O2 generation, average value: 7.6218 µM
KnmB2+24, Time 2
  H2O2 generation, average value: 12.4635 µM
KnmB2+24, Time 3
  H2O2 generation, average value: 16.9204 µM
KnmB2+24, Time 4
  H2O2 generation, average value: 22.1791 µM
KnmB2+24, Time 5
  H2O2 generation, average value: 26.8239 µM
KnmB2+24, Time 8
  H2O2 generation, average value: 38.8438 µM
KnmB2+24, Time 10
  H2O2 generation, average value: 44.6588 µM
KnmB2+24, Time 15
  H2O2 generation, average value: 53.6376 µM
KnmB2+24, Time 20
  H2O2 generation, average value: 56.0339 µM
KnmB2+24, Time 30
  H2O2 generation, average value: 65.5374 µM
KnmB2+24, Time 40
  H2O2 generation, average value: 57.4770 µM
KnmB2+24, Time 60
  H2O2 generation, average value: 60.9452 µM
KnmB2-N219D+24, Time 0
  H2O2 generation, average value: 0.0000 µM
KnmB2-N219D+24, Time 2
  H2O2 generation, average value: 1.0964 µM
KnmB2-N219D+24, Time 4
  H2O2 generation, average value: 1.8460 µM
KnmB2-N219D+24, Time 5
  H2O2 generation, average value: 1.9569 µM
KnmB2-N219D+24, Time 8
  H2O2 generation, average value: 2.8926 µM
KnmB2-N219D+24, Time 10
  H2O2 generation, average value: 3.8614 µM
KnmB2-N219D+24, Time 15
  H2O2 generation, average value: 5.8462 µM
KnmB2-N219D+24, Time 20
  H2O2 generation, average value: 7.3014 µM
KnmB2-N219D+24, Time 30
  H2O2 generation, average value: 11.0201 µM
KnmB2-N219D+24, Time 40
  H2O2 generation, average value: 14.2037 µM
KnmB2-N219D+24, Time 60
  H2O2 generation, average value: 17.9462 µM
KnmB2-Y215F+24, Time 0
  H2O2 generation, average value: 0.0000 µM
KnmB2-Y215F+24, Time 1
  H2O2 generation, average value: 2.6203 µM
KnmB2-Y215F+24, Time 2
  H2O2 generation, average value: 4.3765 µM
KnmB2-Y215F+24, Time 3
  H2O2 generation, average value: 4.8322 µM
KnmB2-Y215F+24, Time 4
  H2O2 generation, average value: 7.3420 µM
KnmB2-Y215F+24, Time 5
  H2O2 generation, average value: 8.5825 µM
KnmB2-Y215F+24, Time 8
  H2O2 generation, average value: 12.4110 µM
KnmB2-Y215F+24, Time 10
  H2O2 generation, average value: 14.9169 µM
KnmB2-Y215F+24, Time 15
  H2O2 generation, average value: 20.6983 µM
KnmB2-Y215F+24, Time 20
  H2O2 generation, average value: 27.2428 µM
KnmB2-Y215F+24, Time 30
  H2O2 generation, average value: 36.5225 µM
KnmB2-Y215F+24, Time 40
  H2O2 generation, average value: 40.7285 µM
KnmB2-Y215F+24, Time 60
  H2O2 generation, average value: 52.7400 µM
